Several values for one entry are separate records, joined by “and”; a condition that tells them apart may be missing. Equal values may be shown once. Read-outs that look alike come from different tables or passages of the source.

The values that follow come from patent US12089591B2 (priority 2005, dated 2024).

For this data set, the system named is ROUNDUP READY FLEX cotton.
Setting [1] is: Table D1a Study 3, glyphosate:dye 100:1, glyphosate 2520 g/ha, PMIDA 11.9 g/ha.
Setting [2] is: Table D1a Study 3, glyphosate:dye 100:1, glyphosate 5040 g/ha, PMIDA 23.9 g/ha.
Where [3] appears, read: Table D1a Study 2, glyphosate:dye 10:1, glyphosate 2520 g/ha, PMIDA 11.9 g/ha.
[4] abbreviates: Table D1a Study 2, glyphosate:dye 10:1, glyphosate 5040 g/ha, PMIDA 23.9 g/ha.
The mark [5] stands for this setting: Table D1a Study 2, glyphosate:dye 100:1, glyphosate 2520 g/ha, PMIDA 11.9 g/ha.
The mark [6] stands for this setting: Table D1a Study 2, glyphosate:dye 100:1, glyphosate 5040 g/ha, PMIDA 23.9 g/ha.
The mark [7] stands for this setting: Table D1a Study 2, glyphosate:dye 1000:1, glyphosate 2520 g/ha, PMIDA 11.9 g/ha.
[8] abbreviates: Table D1a Study 2, glyphosate:dye 1000:1, glyphosate 5040 g/ha, PMIDA 23.9 g/ha.
Setting [9] is: Table M1a, […], glyphosate 2520 g/ha, PMIDA 11.9 g/ha, control = no additive.
The mark [10] stands for this setting: Table M1a, […], glyphosate 5040 g/ha, PMIDA 23.9 g/ha, control = no additive.
The mark [11] stands for this setting: Table AO1a, […], glyphosate 2520 g/ha, PMIDA 11.9 g/ha.
Setting [12] is: Table AO1a, […], glyphosate 5040 g/ha, PMIDA 23.9 g/ha.
The mark [13] stands for this setting: Table H2a, […], glyphosate 2520 g/ha, PMIDA 11.9 g/ha.
Setting [14] is: Table H2a, […], glyphosate 5040 g/ha, PMIDA 23.9 g/ha.
[15] abbreviates: Table M3a, […], glyphosate 1260 g/ha, PMIDA 3.95 g/ha.
Setting [16] is: Table M3a, […], glyphosate 2520 g/ha, PMIDA 7.90 g/ha.
Where [17] appears, read: Table M3a, […], glyphosate 5040 g/ha, PMIDA 15.8 g/ha.

For polyethylene glycol 200, the “decrease of necrosis (in words)” value (in vivo) is on record as “significantly decreased necrosis”.
With `CCN(Cc1cccc(S(=O)(=O)[O-])c1)c1ccc(C(=C2C=CC(=[N+](CC)Cc3cccc(S(=O)(=O)[O-])c3)C=C2)c2ccc(O)cc2S(=O)(=O)[O-])cc1.[Na+].[Na+]` [Fast Green FCF], the “Necrosis Reduction Relative to Coontrol” value amounted to 2% under setting [1] and 0% under setting [2].
For `OCC(O)CO` [glycerin], the “Necrosis Reduction Relative to Control” value by setting is: (Table H1a Study 1, additive 2% v/v, glyphosate 2520 g/ha, PMIDA 11.9 g/ha) 12%; (Table H1a Study 1, additive 2% v/v, glyphosate 5040 g/ha, PMIDA 23.9 g/ha) 14%; (Table H1a Study 1, additive 4% v/v, glyphosate 2520 g/ha, PMIDA 11.9 g/ha) 45%; (Table H1a Study 1, additive 4% v/v, glyphosate 5040 g/ha, PMIDA 23.9 g/ha) 41%. In addition, for the setting “in vivo”, the “reduction of necrosis (in words)” value was “significantly reduced necrosis”.
Regarding `CC(O)C#CC(C)O` (stereo not shown) [3-hexyne-2,5-diol], the “decrease of necrosis (in words)” value (in vivo) is “significantly decreased necrosis”.
Take `CCN(Cc1cccc(S(=O)(=O)[O-])c1)c1ccc(C(=C2C=CC(=[N+](CC)Cc3cccc(S(=O)(=O)[O-])c3)C=C2)c2ccccc2S(=O)(=O)[O-])cc1.[Na+].[Na+]` [FD&C Blue #1]: the “Necrosis Reduction Relative to Coontrol” value under setting [3] was 66%. Moreover, under setting [4], the “% necrosis (2 DAT)” value turned out to be 46% and the “Necrosis Reduction Relative to Coontrol” value was 41%.
As to polyethylene glycol 900, the “decrease of necrosis (in words)” value (in vivo) is “significantly decreased necrosis”.
Same read-out and setting: the same measure for `OCCOCCO` [Diethylene glycol]: “significantly decreased necrosis”.
Regarding `O=C(O)CN(CC(=O)O)CP(=O)(O)O` [PMIDA, N-(phosphonomethyl)iminodiacetic acid], the “Maximum necrosis (plateau)” value (Example 1, highest application rate and higher levels of PMIDA) was 80-85%.
Turning to `O=C([O-])c1nn(-c2ccc(S(=O)(=O)[O-])cc2)c(O)c1N=Nc1ccc(S(=O)(=O)[O-])cc1.[Na+].[Na+].[Na+]` [FD&C Yellow #5, 3-carboxy-5-hydroxy-1-p-sulfophenyl-4-p-sulfophenylazopyrazole trisodium salt], the “Necrosis Reduction Relative to Coontrol” value by setting is: (Table D1a Study 1, glyphosate:dye 10:1, glyphosate 2520 g/ha, PMIDA 11.9 g/ha) 96%; (Table D1a Study 1, glyphosate:dye 10:1, glyphosate 5040 g/ha, PMIDA 23.9 g/ha) 55%; under setting [3], 84%; under setting [4], 51%; under setting [5], 18%; under setting [6], 29%. In addition, the “Necrosis Reduction Relative to Coontrol” value is recorded as 26% under setting [7] and 12% under setting [8]. The “% necrosis (2 DAT)” value reads like this: under setting [4], 38%; under setting [5], 31%; under setting [6], 55%; under setting [7], 28%; under setting [8], 69%. The “decrease of PMIDA-induced necrosis by dye (in words)” value (dye as safening agent in glyphosate spray solutions) is on record as “significantly decrease”.
For Aluminum chloride hexahydrate, the “Necrosis Reduction Relative to Control” value (in vivo) was 95% and 71%.
Regarding `OCCCCO` [1,4-butanediol], the “decrease of necrosis (in words)” value (in vivo) is given as “significantly decreased necrosis”.
As to `[Cl][Fe]([Cl])[Cl]` [Ferric chloride], the “Necrosis Reduction Relative to Control” value by setting is: under setting [9], 100%; under setting [10], 97%.
Regarding `COc1ccc(O)c(C(C)(C)C)c1` [butylated hydroxy anisole, butylated hydroxyanisole], the “Necrosis Reduction Relative to Control” value is 80% under setting [11] and 29% under setting [12].
With `NC(N)=O` [urea], the “Necrosis Reduction Relative to Control” value (Table H1a Study 2, glycerin 4% v/v or urea 8% v/v, glyphosate 2520 g/ha, PMIDA 11.9 g/ha) worked out at 36% and the “Necrosis Reduction Relative to Control” value (Table H1a Study 2, glycerin 4% v/v or urea 8% v/v, glyphosate 5040 g/ha, PMIDA 23.9 g/ha) was 13%. Under “in vivo”, the “reduction of necrosis (in words)” value is listed as “significantly reduced necrosis”.
`CCC(CO)(CO)CO` [trimethylol-propane]: the “Necrosis Reduction Relative to Control” value was determined as 0% under setting [13] and 0% under setting [14].
Take `O=C([O-])CN(CCN(CC(=O)[O-])CC(=O)[O-])CC(=O)[O-].[Fe+3].[Na+]` [Iron + EDTA, iron(III) EDTA sodium salt hydrate]: the “Necrosis Reduction Relative to Control” value reads like this: under setting [15], 100%; under setting [16], 68%; under setting [17], 45%. Also, where the note is “in vivo”, the “reduction in necrosis, comparison of iron sources (in words)” value is on record as “significantly less effective”.
As for `CCN(Cc1cccc(S(=O)(=O)[O-])c1)c1ccc(C(=C2C=CC(=[N+](C)C)C=C2)c2ccc(N(CC)Cc3cccc(S(=O)(=O)O)c3)cc2)cc1` [FD&C Violet #1], the “Necrosis Reduction Relative to Coontrol” value is 37% under setting [1] and 0% under setting [2].
In the case of `O.O.O.O.O.O.O.O=S(=O)([O-])[O-].[Mg+2]` [Magnesium sulfate, Magnesium sulfate heptahydrate], where the note is “in vivo”, the “Necrosis Reduction Relative to Control” value is 0% and 6%; the “effect of metal salt on necrosis (in words)” value was “relatively little impact”.
For the compound `CC(O)CC(C)(C)O` (stereo not shown) [2-methyl-2,4-pentanediol], the “decrease of necrosis (in words)” value (in vivo) was “significantly decreased necrosis”.
Take `O=C([O-])CC(O)(CC(=O)[O-])C(=O)[O-].[Fe+3]` [Iron citrate, iron(III) citrate]: the “Necrosis Reduction Relative to Control” value is 100% under setting [15], 97% under setting [16] and 75% under setting [17]. Further, the “reduction in necrosis, comparison of iron sources (in words)” value (in vivo) was “no significant difference”.
As to `Nc1cc(S(=O)(=O)[O-])cc2cc(S(=O)(=O)[O-])c(N=Nc3ccccc3)c(O)c12.[Na+].[Na+]` [FD&C Red #33], the “Necrosis Reduction Relative to Coontrol” value is on record as 6% under setting [1] and 0% under setting [2].
As to `[Ca+2].[Cl-].[Cl-]` [Calcium chloride, Calcium chloride (anhydrous)], the “Necrosis Reduction Relative to Control” value reads like this: under setting [9], 32%; under setting [10], 6%.
For `O=[N+]([O-])[O-].O=[N+]([O-])[O-].[Cu+2]` [Cupric Nitrate, Cupric Nitrate (2.1) hydrate], in that order: 92% and 68%.
Take `CC(C)CC(C)(O)C#CC(C)(O)CC(C)C` (stereo not shown) [Surfynol 104A]: the “Necrosis Reduction Relative to Control” value reads like this: under setting [13], 50%; under setting [14], 8%. Moreover, the “decrease of necrosis (in words)” value (in vivo) is “significantly decreased necrosis”.
On to `O=S([O-])[O-].[Na+].[Na+]` [Sodium sulfite, sodium sulfite], for which the “Necrosis Reduction Relative to Control” value is, setting by setting: under setting [11], 39%; under setting [12], 0%.
Consider Zinc sulfate heptahydrate, for which the “effect of metal salt on necrosis (in words)” value (in vivo) is “significantly reduce necrosis”.
On to `COc1cc(S(=O)(=O)[O-])c(C)cc1N=Nc1c(O)ccc2cc(S(=O)(=O)[O-])ccc12.[Na+].[Na+]` [FD&C Red #40], for which the “Necrosis Reduction Relative to Coontrol” value is reported as 11% under setting [1] and 0% under setting [2].
